Columns and labels:
SETVI (Foxtail, Green) [1] = experiment: Preemergence herbicidal evaluation; type: in vivo, Setaria viridis; details: rated 4-5 weeks after treatment
Method in brief: (§1)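 In this greenhouse assay, monocot and dicot seeds are planted in soil and treated prior to emergence with an aqueous acetone spray (about 0.0156-0.500 kg/ha). Plants are assessed visually against control on a 0-9 scale after 4-5 weeks.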

ABUTH (Velvetleaf) [2] = experiment: Postemergence herbicidal evaluation; type: in vivo, Abutilon theophrasti
Method in brief: (§2)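 Visual 0-9 injury score (stand, vigor, malformation, size, chlorosis, appearance vs untreated) taken four to five weeks post-spray, averaged across repeat tests. Test plants about two weeks old; foliar spray of acetone/water (1:1) with 0.5% surfactant delivering ~0.0156-0.500 kg active/ha.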

CYPIR (Rice Flatsedge) = experiment: Postemergence weed control under flooded paddy conditions; type: in vivo, Cyperus iria; details: postemergence weeds, 3-4 weeks after treatment
Method in brief: (§3)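 Containers holding 3–5 cm weeds and rice at 1.5–2.5 leaves are flooded to 1.5–3 cm above soil. Compound in 50/50 v/v aqueous/acetone is then added directly to the water, about 0.0313–0.500 kg/ha. Plants are kept in the greenhouse and rated 0–9 visually at 3–4 weeks.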

CASOB (Sicklepod) = experiment: Preemergence herbicidal evaluation; type: in vivo, Cassia obtusifolia; details: rated 4-5 weeks after treatment
Method in brief: as §1

ABUTH (Velvetleaf) [3] = experiment: Preemergence herbicidal evaluation; type: in vivo, Abutilon theophrasti; details: rated 4-5 weeks after treatment
Method in brief: as §1

[4] = tested on: SAGPY (Arrowhead (Pygmaea)); experiment: Postemergence weed control under flooded paddy conditions; type: in vivo, Sagittaria pygmaea; details: postemergence weeds, 3-4 weeks after treatment
Method in brief: as §3

[5] = tested on: SAGPY (Arrowhead (Pygmaea)); experiment: Preemergence weed control under flooded paddy conditions; type: in vivo, Sagittaria pygmaea; details: rated 3-4 weeks after treatment
Method in brief: (§4)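 Using flooded silt loam (water 1.5 to 3 cm deep), seeds sown in the top 0.5 cm were exposed preemergence to compound pipetted into the flood at about 0.0313 to 0.500 kg/ha. Effects were scored 0-9 by eye three to four weeks later.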

[6] = tested on: GLXMAW (Soybean, Williams); experiment: Postemergence herbicidal evaluation; type: in vivo, Glycine max, (L.) Merr. cv Williams
Method in brief: as §2

ORYSAT (Rice, Tebonnet) = experiment: Postemergence herbicidal evaluation; type: in vivo, Oryza sativa, (L.) Tebonnet
Method in brief: as §2

MOOVA (Monochoria) = experiment: Preemergence weed control under flooded paddy conditions; type: in vivo, Monochoria vaginalis; details: rated 3-4 weeks after treatment
Method in brief: as §4

SETVI (Foxtail, Green) [7] = experiment: Postemergence herbicidal evaluation; type: in vivo, Setaria viridis
Method in brief: as §2

ECHCG (Barnyardgrass) = experiment: Postemergence herbicidal evaluation; type: in vivo, Echinochloa crus-galli
Method in brief: as §2

[8] = tested on: TRZAWR (Wheat, Winter, cv Riband); experiment: Postemergence herbicidal evaluation; type: in vivo, Triticum aestivum
Method in brief: as §2

AMBEL (Ragweed, Common) = experiment: Postemergence herbicidal evaluation; type: in vivo, Ambrosia artemisifolia
Method in brief: as §2

## Cn1c(C(F)(F)F)cc(=O)n(-c2cc(N=C3SCC(=O)N3CC(=O)NS(C)(=O)=O)c(Cl)cc2F)c1=O [Compound 38, 2-{{2-Chloro-5-[3,6-dihydro-3-methyl-2,6-dioxo-4-(trifluoromethyl)-1(2H)-pyrimidinyl]-4-fluoro-phenyl}imino}-N-(methylsulfonyl)-4-oxo-3-thiazolidineacetamide]
SETVI (Foxtail, Green) [1]; rate 0.0313 kg/ha
  Preemergence herbicidal rating SETVI: 0.0
SETVI (Foxtail, Green) [1]; rate 0.0625 kg/ha
  Preemergence herbicidal rating SETVI: 3.0
SETVI (Foxtail, Green) [1]; rate 0.1250 kg/ha
  Preemergence herbicidal rating SETVI: 7.0
SETVI (Foxtail, Green) [1]; rate 0.2500 kg/ha
  Preemergence herbicidal rating SETVI: 9.0
ABUTH (Velvetleaf) [2]; Rate 0.0156 kg/ha
  Postemergence herbicidal rating ABUTH: 9.0
ABUTH (Velvetleaf) [2]; Rate 0.0313 kg/ha
  Postemergence herbicidal rating ABUTH: 9.0
ABUTH (Velvetleaf) [2]; Rate 0.0625 kg/ha
  Postemergence herbicidal rating ABUTH: 9.0
ABUTH (Velvetleaf) [2]; Rate 0.1250 kg/ha
  Postemergence herbicidal rating ABUTH: 9.0
ABUTH (Velvetleaf) [2]; Rate 0.2500 kg/ha
  Postemergence herbicidal rating ABUTH: 9.0
CYPIR (Rice Flatsedge); rate 0.0313 kg/ha
  Herbicidal rating CYPIR: 3.0
CYPIR (Rice Flatsedge); rate 0.0625 kg/ha
  Herbicidal rating CYPIR: 3.0
CYPIR (Rice Flatsedge); rate 0.1250 kg/ha
  Herbicidal rating CYPIR: 5.0
CYPIR (Rice Flatsedge); rate 0.2500 kg/ha
  Herbicidal rating CYPIR: 5.0
CASOB (Sicklepod); rate 0.0313 kg/ha
  Preemergence herbicidal rating CASOB: 0.0
CASOB (Sicklepod); rate 0.0625 kg/ha
  Preemergence herbicidal rating CASOB: 0.0
CASOB (Sicklepod); rate 0.1250 kg/ha
  Preemergence herbicidal rating CASOB: 0.0
CASOB (Sicklepod); rate 0.2500 kg/ha
  Preemergence herbicidal rating CASOB: 3.0
ABUTH (Velvetleaf) [3]; rate 0.0313 kg/ha
  Preemergence herbicidal rating ABUTH: 9.0
ABUTH (Velvetleaf) [3]; rate 0.0625 kg/ha
  Preemergence herbicidal rating ABUTH: 9.0
ABUTH (Velvetleaf) [3]; rate 0.1250 kg/ha
  Preemergence herbicidal rating ABUTH: 9.0
ABUTH (Velvetleaf) [3]; rate 0.2500 kg/ha
  Preemergence herbicidal rating ABUTH: 9.0
[4]; rate 0.0313 kg/ha
  Herbicidal rating SAGPY: 0.0
[4]; rate 0.0625 kg/ha
  Herbicidal rating SAGPY: 3.0
[4]; rate 0.1250 kg/ha
  Herbicidal rating SAGPY: 4.0
[4]; rate 0.2500 kg/ha
  Herbicidal rating SAGPY: 9.0
[5]; 0.0313 kg/ha
  Herbicidal rating SAGPY: 0.0
[5]; 0.0625 kg/ha
  Herbicidal rating SAGPY: 3.0
[5]; 0.1250 kg/ha
  Herbicidal rating SAGPY: 4.0
[5]; 0.2500 kg/ha
  Herbicidal rating SAGPY: 9.0
[6]; Rate 0.0156 kg/ha
  Postemergence herbicidal rating GLXMAW: 6.5
[6]; Rate 0.0313 kg/ha
  Postemergence herbicidal rating GLXMAW: 6.5
[6]; Rate 0.0625 kg/ha
  Postemergence herbicidal rating GLXMAW: 8.0
[6]; Rate 0.1250 kg/ha
  Postemergence herbicidal rating GLXMAW: 8.5
[6]; Rate 0.2500 kg/ha
  Postemergence herbicidal rating GLXMAW: 8.5
ORYSAT (Rice, Tebonnet); Rate 0.0156 kg/ha
  Postemergence herbicidal rating ORYSAT: 0.5
ORYSAT (Rice, Tebonnet); Rate 0.0313 kg/ha
  Postemergence herbicidal rating ORYSAT: 0.5
ORYSAT (Rice, Tebonnet); Rate 0.0625 kg/ha
  Postemergence herbicidal rating ORYSAT: 2.5
ORYSAT (Rice, Tebonnet); Rate 0.1250 kg/ha
  Postemergence herbicidal rating ORYSAT: 6.0
ORYSAT (Rice, Tebonnet); Rate 0.2500 kg/ha
  Postemergence herbicidal rating ORYSAT: 7.5
MOOVA (Monochoria); 0.0313 kg/ha
  Herbicidal rating MOOVA: 9.0
MOOVA (Monochoria); 0.0625 kg/ha
  Herbicidal rating MOOVA: 9.0
MOOVA (Monochoria); 0.1250 kg/ha
  Herbicidal rating MOOVA: 9.0
MOOVA (Monochoria); 0.2500 kg/ha
  Herbicidal rating MOOVA: 9.0
SETVI (Foxtail, Green) [7]; Rate 0.0156 kg/ha
  Postemergence herbicidal rating SETVI: 0.0
SETVI (Foxtail, Green) [7]; Rate 0.0313 kg/ha
  Postemergence herbicidal rating SETVI: 3.0
SETVI (Foxtail, Green) [7]; Rate 0.0625 kg/ha
  Postemergence herbicidal rating SETVI: 5.0
SETVI (Foxtail, Green) [7]; Rate 0.1250 kg/ha
  Postemergence herbicidal rating SETVI: 9.0
SETVI (Foxtail, Green) [7]; Rate 0.2500 kg/ha
  Postemergence herbicidal rating SETVI: 9.0
ECHCG (Barnyardgrass); Rate 0.0156 kg/ha
  Postemergence herbicidal rating ECHCG: 0.0
ECHCG (Barnyardgrass); Rate 0.0313 kg/ha
  Postemergence herbicidal rating ECHCG: 2.0
ECHCG (Barnyardgrass); Rate 0.0625 kg/ha
  Postemergence herbicidal rating ECHCG: 2.0
ECHCG (Barnyardgrass); Rate 0.1250 kg/ha
  Postemergence herbicidal rating ECHCG: 5.0
ECHCG (Barnyardgrass); Rate 0.2500 kg/ha
  Postemergence herbicidal rating ECHCG: 9.0
[8]; Rate 0.0156 kg/ha
  Postemergence herbicidal rating TRZAWR: 5.0
[8]; Rate 0.0313 kg/ha
  Postemergence herbicidal rating TRZAWR: 5.5
[8]; Rate 0.0625 kg/ha
  Postemergence herbicidal rating TRZAWR: 6.5
[8]; Rate 0.1250 kg/ha
  Postemergence herbicidal rating TRZAWR: 8.0
[8]; Rate 0.2500 kg/ha
  Postemergence herbicidal rating TRZAWR: 8.0
AMBEL (Ragweed, Common); Rate 0.0156 kg/ha
  Postemergence herbicidal rating AMBEL: 3.0
AMBEL (Ragweed, Common); Rate 0.0313 kg/ha
  Postemergence herbicidal rating AMBEL: 5.0
AMBEL (Ragweed, Common); Rate 0.0625 kg/ha
  Postemergence herbicidal rating AMBEL: 5.0
AMBEL (Ragweed, Common); Rate 0.1250 kg/ha
  Postemergence herbicidal rating AMBEL: 9.0
AMBEL (Ragweed, Common); Rate 0.2500 kg/ha
  Postemergence herbicidal rating AMBEL: 9.0

## CCOC(=O)CN1C(=O)C(CC(=O)OCc2ccccc2)OC1=Nc1cc(-n2c(=O)cc(C(F)(F)F)n(C)c2=O)c(F)cc1Cl (stereo not shown) [Compound 40, 2-{{2-Chloro-5-[3,6-dihydro-3-methyl-2,6-dioxo-4-(trifluoromethyl)-1(2H)-pyrimidinyl]-4-fluorophenyl}imino}-4-oxo-3,5-oxazolidinediacetic acid, 5-benzyl ethyl ester]
SETVI (Foxtail, Green) [1]; rate 0.0313 kg/ha
  Preemergence herbicidal rating SETVI: 0.0
SETVI (Foxtail, Green) [1]; rate 0.0625 kg/ha
  Preemergence herbicidal rating SETVI: 0.0
SETVI (Foxtail, Green) [1]; rate 0.1250 kg/ha
  Preemergence herbicidal rating SETVI: 6.0
SETVI (Foxtail, Green) [1]; rate 0.2500 kg/ha
  Preemergence herbicidal rating SETVI: 6.0
ABUTH (Velvetleaf) [2]; Rate 0.0158 kg/ha
  Postemergence herbicidal rating ABUTH: 9.0
ABUTH (Velvetleaf) [2]; Rate 0.0315 kg/ha
  Postemergence herbicidal rating ABUTH: 9.0
ABUTH (Velvetleaf) [2]; Rate 0.0630 kg/ha
  Postemergence herbicidal rating ABUTH: 9.0
CYPIR (Rice Flatsedge); rate 0.0313 kg/ha
  Herbicidal rating CYPIR: 0.0
CYPIR (Rice Flatsedge); rate 0.0625 kg/ha
  Herbicidal rating CYPIR: 0.0
CYPIR (Rice Flatsedge); rate 0.1250 kg/ha
  Herbicidal rating CYPIR: 0.0
CYPIR (Rice Flatsedge); rate 0.2500 kg/ha
  Herbicidal rating CYPIR: 0.0
CASOB (Sicklepod); rate 0.0313 kg/ha
  Preemergence herbicidal rating CASOB: 0.0
CASOB (Sicklepod); rate 0.0625 kg/ha
  Preemergence herbicidal rating CASOB: 0.0
CASOB (Sicklepod); rate 0.1250 kg/ha
  Preemergence herbicidal rating CASOB: 0.0
CASOB (Sicklepod); rate 0.2500 kg/ha
  Preemergence herbicidal rating CASOB: 1.0
ABUTH (Velvetleaf) [3]; rate 0.0313 kg/ha
  Preemergence herbicidal rating ABUTH: 0.0
ABUTH (Velvetleaf) [3]; rate 0.0625 kg/ha
  Preemergence herbicidal rating ABUTH: 6.0
ABUTH (Velvetleaf) [3]; rate 0.1250 kg/ha
  Preemergence herbicidal rating ABUTH: 9.0
ABUTH (Velvetleaf) [3]; rate 0.2500 kg/ha
  Preemergence herbicidal rating ABUTH: 9.0
[4]; rate 0.0313 kg/ha
  Herbicidal rating SAGPY: 0.0
[4]; rate 0.0625 kg/ha
  Herbicidal rating SAGPY: 0.0
[4]; rate 0.1250 kg/ha
  Herbicidal rating SAGPY: 0.0
[4]; rate 0.2500 kg/ha
  Herbicidal rating SAGPY: 0.0
[5]; 0.0313 kg/ha
  Herbicidal rating SAGPY: 0.0
[5]; 0.0625 kg/ha
  Herbicidal rating SAGPY: 0.0
[5]; 0.1250 kg/ha
  Herbicidal rating SAGPY: 0.0
[5]; 0.2500 kg/ha
  Herbicidal rating SAGPY: 0.0
[6]; Rate 0.0158 kg/ha
  Postemergence herbicidal rating GLXMAW: 7.0
[6]; Rate 0.0315 kg/ha
  Postemergence herbicidal rating GLXMAW: 9.0
[6]; Rate 0.0630 kg/ha
  Postemergence herbicidal rating GLXMAW: 8.0
ORYSAT (Rice, Tebonnet); Rate 0.0158 kg/ha
  Postemergence herbicidal rating ORYSAT: 2.5
ORYSAT (Rice, Tebonnet); Rate 0.0315 kg/ha
  Postemergence herbicidal rating ORYSAT: 3.0
ORYSAT (Rice, Tebonnet); Rate 0.0630 kg/ha
  Postemergence herbicidal rating ORYSAT: 3.0
MOOVA (Monochoria); 0.0313 kg/ha
  Herbicidal rating MOOVA: 9.0
MOOVA (Monochoria); 0.0625 kg/ha
  Herbicidal rating MOOVA: 9.0
MOOVA (Monochoria); 0.1250 kg/ha
  Herbicidal rating MOOVA: 9.0
MOOVA (Monochoria); 0.2500 kg/ha
  Herbicidal rating MOOVA: 9.0
SETVI (Foxtail, Green) [7]; Rate 0.0158 kg/ha
  Postemergence herbicidal rating SETVI: 1.0
SETVI (Foxtail, Green) [7]; Rate 0.0315 kg/ha
  Postemergence herbicidal rating SETVI: 7.0
SETVI (Foxtail, Green) [7]; Rate 0.0630 kg/ha
  Postemergence herbicidal rating SETVI: 9.0
ECHCG (Barnyardgrass); Rate 0.0158 kg/ha
  Postemergence herbicidal rating ECHCG: 1.0
ECHCG (Barnyardgrass); Rate 0.0315 kg/ha
  Postemergence herbicidal rating ECHCG: 7.0
ECHCG (Barnyardgrass); Rate 0.0630 kg/ha
  Postemergence herbicidal rating ECHCG: 9.0
[8]; Rate 0.0158 kg/ha
  Postemergence herbicidal rating TRZAWR: 4.0
[8]; Rate 0.0315 kg/ha
  Postemergence herbicidal rating TRZAWR: 4.0
[8]; Rate 0.0630 kg/ha
  Postemergence herbicidal rating TRZAWR: 4.5
AMBEL (Ragweed, Common); Rate 0.0158 kg/ha
  Postemergence herbicidal rating AMBEL: 9.0
AMBEL (Ragweed, Common); Rate 0.0315 kg/ha
  Postemergence herbicidal rating AMBEL: 9.0
AMBEL (Ragweed, Common); Rate 0.0630 kg/ha
  Postemergence herbicidal rating AMBEL: 9.0
